Experimental data reported in article PMC3694096, “Development of Novel In Vivo Chemical Probes to Address CNS Protein Kinase Involvement in Synaptic Dysfunction” (PLoS ONE, 2013).
Read-outs that look alike come from different tables or passages of the source.

Experiments:
TAO2 = target: T1, TAO2 (Homo sapiens, UniProt Q9UL54); assay: Kinome profiler screen; type: biochemical; conditions: at 20,000 nM inhibitor; kinase activity remaining
T1 construct: purchased Millipore KinaseProfiler

cKit(D816H) = target: T2, cKit(D816H) (Homo sapiens, UniProt P10721, D816H); assay: Kinome profiler screen; type: biochemical; conditions: at 20,000 nM inhibitor; kinase activity remaining
T2 construct: purchased Millipore KinaseProfiler
T2 sequence (P10721 26-976 D816H): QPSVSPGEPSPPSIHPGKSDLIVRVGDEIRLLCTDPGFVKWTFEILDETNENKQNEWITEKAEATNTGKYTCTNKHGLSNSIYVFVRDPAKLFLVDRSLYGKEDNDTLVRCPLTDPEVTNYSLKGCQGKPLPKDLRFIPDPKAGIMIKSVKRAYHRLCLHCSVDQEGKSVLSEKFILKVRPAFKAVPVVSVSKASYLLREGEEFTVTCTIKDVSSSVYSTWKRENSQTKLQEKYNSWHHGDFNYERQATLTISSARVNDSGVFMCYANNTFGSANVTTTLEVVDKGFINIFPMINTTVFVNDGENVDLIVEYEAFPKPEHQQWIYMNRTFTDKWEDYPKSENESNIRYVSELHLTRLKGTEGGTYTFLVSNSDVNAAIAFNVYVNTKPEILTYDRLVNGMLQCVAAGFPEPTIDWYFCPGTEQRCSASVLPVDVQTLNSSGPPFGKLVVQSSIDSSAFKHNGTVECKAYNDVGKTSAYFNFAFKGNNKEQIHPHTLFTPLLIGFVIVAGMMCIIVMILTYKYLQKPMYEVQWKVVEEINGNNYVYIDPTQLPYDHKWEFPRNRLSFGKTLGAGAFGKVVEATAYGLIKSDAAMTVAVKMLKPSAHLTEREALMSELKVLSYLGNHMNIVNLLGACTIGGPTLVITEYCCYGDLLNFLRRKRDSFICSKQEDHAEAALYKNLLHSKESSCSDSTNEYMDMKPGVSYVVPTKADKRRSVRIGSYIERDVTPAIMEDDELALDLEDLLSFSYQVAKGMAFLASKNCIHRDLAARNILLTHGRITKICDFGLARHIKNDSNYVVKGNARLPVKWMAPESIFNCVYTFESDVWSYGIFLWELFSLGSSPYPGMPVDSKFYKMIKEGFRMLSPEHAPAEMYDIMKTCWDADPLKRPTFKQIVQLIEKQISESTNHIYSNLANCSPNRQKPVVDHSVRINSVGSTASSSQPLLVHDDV

TrkB = target: T3, TrkB (Homo sapiens, UniProt Q16620); assay: Kinome profiler screen; type: biochemical
T3 construct: purchased Millipore KinaseProfiler

GSK3β = target: T4, GSK3β (Homo sapiens, UniProt P49841); assay: Kinome profiler screen; type: biochemical; conditions: at 20,000 nM inhibitor; kinase activity remaining
T4 construct: purchased Millipore KinaseProfiler

PKBα = target: T5, PKBα (Homo sapiens, UniProt P31749); assay: Kinome profiler screen; type: biochemical; conditions: at 20,000 nM inhibitor; kinase activity remaining
T5 construct: purchased Millipore KinaseProfiler

PAR-1Bα = target: T6, PAR-1Bα (Homo sapiens, UniProt Q7KZI7); assay: Kinome profiler screen; type: biochemical; conditions: at 20,000 nM inhibitor; kinase activity remaining
T6 construct: purchased Millipore KinaseProfiler

[1] = system: IL-1β levels in brain cortex; assay: LPS-induced brain IL-1β in vivo; design: species or system C57Bl/6 mice; conditions: 20 mg/Kg oral gavage 1 hr before LPS 0.5 mg/kg i.p.; brain cortex at 6 hrs
EGFR(T790M,L858R) = target: T7, EGFR(T790M,L858R) (Homo sapiens, UniProt P00533, L858R/T790M); assay: Kinome profiler screen; type: biochemical; conditions: at 20,000 nM inhibitor; kinase activity remaining
T7 construct: purchased Millipore KinaseProfiler

MRCKβ = target: T8, MRCKβ (Homo sapiens, UniProt Q9Y5S2); assay: Kinome profiler screen; type: biochemical; conditions: at 20,000 nM inhibitor; kinase activity remaining
T8 construct: purchased Millipore KinaseProfiler

Lyn(m) = target: T9, Lyn(m) (Mus musculus, UniProt P25911); assay: Kinome profiler screen; type: biochemical; conditions: at 20,000 nM inhibitor; kinase activity remaining
T9 construct: purchased Millipore KinaseProfiler

SGK = target: T10, SGK (Homo sapiens, UniProt O00141); assay: Kinome profiler screen; type: biochemical; conditions: at 20,000 nM inhibitor; kinase activity remaining
T10 construct: purchased Millipore KinaseProfiler
T10 sequence (O00141 whole entry): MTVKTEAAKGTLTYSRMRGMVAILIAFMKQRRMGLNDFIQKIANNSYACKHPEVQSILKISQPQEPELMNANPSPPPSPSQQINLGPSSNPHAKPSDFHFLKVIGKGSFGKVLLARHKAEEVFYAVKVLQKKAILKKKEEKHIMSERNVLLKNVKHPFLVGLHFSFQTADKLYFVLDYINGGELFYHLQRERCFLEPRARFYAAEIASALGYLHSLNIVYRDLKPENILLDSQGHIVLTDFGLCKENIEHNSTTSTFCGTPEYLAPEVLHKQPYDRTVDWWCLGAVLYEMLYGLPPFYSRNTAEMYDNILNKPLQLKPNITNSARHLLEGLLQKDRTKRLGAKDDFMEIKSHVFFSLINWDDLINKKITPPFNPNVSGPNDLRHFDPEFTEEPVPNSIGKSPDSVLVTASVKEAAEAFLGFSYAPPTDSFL

Src(1-530) = target: T11, Src(1-530) (Homo sapiens, UniProt P12931); assay: Kinome profiler screen; type: biochemical; conditions: at 20,000 nM inhibitor; kinase activity remaining
T11 construct: purchased Millipore KinaseProfiler

CDK2/cyclinE = target: T12, CDK2/cyclinE (Homo sapiens, UniProt P24941); assay: Kinome profiler screen; type: biochemical; conditions: at 20,000 nM inhibitor; kinase activity remaining
T12 construct: purchased Millipore KinaseProfiler

Ros = target: T13, Ros (Homo sapiens, UniProt P08922); assay: Kinome profiler screen; type: biochemical; conditions: at 20,000 nM inhibitor; kinase activity remaining
T13 construct: purchased Millipore KinaseProfiler

Met(D1246H) = target: T14, Met(D1246H) (Homo sapiens, UniProt P08581, D1228H); assay: Kinome profiler screen; type: biochemical; conditions: at 20,000 nM inhibitor; kinase activity remaining
T14 construct: purchased Millipore KinaseProfiler

GRK5 = target: T15, GRK5 (Homo sapiens, UniProt P34947); assay: Kinome profiler screen; type: biochemical
T15 construct: purchased Millipore KinaseProfiler

Abl(Y253F) = target: T16, Abl(Y253F) (Homo sapiens, UniProt P00519, Y253F); assay: Kinome profiler screen; type: biochemical; conditions: at 20,000 nM inhibitor; kinase activity remaining
T16 construct: purchased Millipore KinaseProfiler

CHK2(I157T) = target: T17, CHK2(I157T) (Homo sapiens, UniProt O96017, I157T); assay: Kinome profiler screen; type: biochemical; conditions: at 20,000 nM inhibitor; kinase activity remaining
T17 construct: purchased Millipore KinaseProfiler

[2] = target: T18, PI3 Kinase (p110 β/p85β)(m) (Mus musculus, UniProt Q8BTI9); assay: Kinome profiler screen; type: biochemical; conditions: at 20,000 nM inhibitor; kinase activity remaining
T18 construct: purchased Millipore KinaseProfiler

Arg(m) = target: T19, Arg(m) (Mus musculus, UniProt Q4JIM5); assay: Kinome profiler screen; type: biochemical; conditions: at 20,000 nM inhibitor; kinase activity remaining
T19 construct: purchased Millipore KinaseProfiler
T19 sequence (Q4JIM5 2-1182 limits assumed): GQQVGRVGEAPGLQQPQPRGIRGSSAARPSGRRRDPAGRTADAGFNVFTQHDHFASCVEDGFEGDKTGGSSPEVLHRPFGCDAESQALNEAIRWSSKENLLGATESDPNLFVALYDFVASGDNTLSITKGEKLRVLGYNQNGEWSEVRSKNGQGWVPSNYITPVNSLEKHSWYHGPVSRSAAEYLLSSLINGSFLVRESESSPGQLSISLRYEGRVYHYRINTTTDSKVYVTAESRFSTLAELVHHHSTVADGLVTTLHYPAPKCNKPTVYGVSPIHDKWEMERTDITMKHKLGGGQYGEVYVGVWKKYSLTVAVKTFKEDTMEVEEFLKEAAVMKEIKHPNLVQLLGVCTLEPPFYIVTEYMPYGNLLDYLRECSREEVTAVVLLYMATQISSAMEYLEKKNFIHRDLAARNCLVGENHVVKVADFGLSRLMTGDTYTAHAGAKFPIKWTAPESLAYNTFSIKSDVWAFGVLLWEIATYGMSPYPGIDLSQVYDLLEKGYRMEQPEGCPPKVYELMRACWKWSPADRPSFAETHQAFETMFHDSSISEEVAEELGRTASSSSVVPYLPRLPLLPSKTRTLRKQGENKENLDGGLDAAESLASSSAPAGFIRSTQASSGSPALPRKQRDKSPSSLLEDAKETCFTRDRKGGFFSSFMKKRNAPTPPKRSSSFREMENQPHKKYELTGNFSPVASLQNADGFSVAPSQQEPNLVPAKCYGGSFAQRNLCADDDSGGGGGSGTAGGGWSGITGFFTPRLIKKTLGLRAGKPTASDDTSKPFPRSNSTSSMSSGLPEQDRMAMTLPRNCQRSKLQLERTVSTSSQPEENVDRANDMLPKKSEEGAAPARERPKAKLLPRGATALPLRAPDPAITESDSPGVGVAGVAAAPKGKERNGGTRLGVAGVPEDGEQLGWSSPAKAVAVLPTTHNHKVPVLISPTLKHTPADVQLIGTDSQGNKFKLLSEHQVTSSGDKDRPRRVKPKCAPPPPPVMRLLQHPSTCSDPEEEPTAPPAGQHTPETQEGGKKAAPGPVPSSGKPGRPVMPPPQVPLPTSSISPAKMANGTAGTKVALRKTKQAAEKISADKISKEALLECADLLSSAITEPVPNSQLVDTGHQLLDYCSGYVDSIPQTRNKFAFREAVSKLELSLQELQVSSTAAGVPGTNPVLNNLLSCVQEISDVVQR

HIPK2 = target: T20, HIPK2 (Homo sapiens, UniProt Q9H2X6); assay: Kinome profiler screen; type: biochemical; conditions: at 20,000 nM inhibitor; kinase activity remaining
T20 construct: purchased Millipore KinaseProfiler
T20 sequence (Q9H2X6 whole entry): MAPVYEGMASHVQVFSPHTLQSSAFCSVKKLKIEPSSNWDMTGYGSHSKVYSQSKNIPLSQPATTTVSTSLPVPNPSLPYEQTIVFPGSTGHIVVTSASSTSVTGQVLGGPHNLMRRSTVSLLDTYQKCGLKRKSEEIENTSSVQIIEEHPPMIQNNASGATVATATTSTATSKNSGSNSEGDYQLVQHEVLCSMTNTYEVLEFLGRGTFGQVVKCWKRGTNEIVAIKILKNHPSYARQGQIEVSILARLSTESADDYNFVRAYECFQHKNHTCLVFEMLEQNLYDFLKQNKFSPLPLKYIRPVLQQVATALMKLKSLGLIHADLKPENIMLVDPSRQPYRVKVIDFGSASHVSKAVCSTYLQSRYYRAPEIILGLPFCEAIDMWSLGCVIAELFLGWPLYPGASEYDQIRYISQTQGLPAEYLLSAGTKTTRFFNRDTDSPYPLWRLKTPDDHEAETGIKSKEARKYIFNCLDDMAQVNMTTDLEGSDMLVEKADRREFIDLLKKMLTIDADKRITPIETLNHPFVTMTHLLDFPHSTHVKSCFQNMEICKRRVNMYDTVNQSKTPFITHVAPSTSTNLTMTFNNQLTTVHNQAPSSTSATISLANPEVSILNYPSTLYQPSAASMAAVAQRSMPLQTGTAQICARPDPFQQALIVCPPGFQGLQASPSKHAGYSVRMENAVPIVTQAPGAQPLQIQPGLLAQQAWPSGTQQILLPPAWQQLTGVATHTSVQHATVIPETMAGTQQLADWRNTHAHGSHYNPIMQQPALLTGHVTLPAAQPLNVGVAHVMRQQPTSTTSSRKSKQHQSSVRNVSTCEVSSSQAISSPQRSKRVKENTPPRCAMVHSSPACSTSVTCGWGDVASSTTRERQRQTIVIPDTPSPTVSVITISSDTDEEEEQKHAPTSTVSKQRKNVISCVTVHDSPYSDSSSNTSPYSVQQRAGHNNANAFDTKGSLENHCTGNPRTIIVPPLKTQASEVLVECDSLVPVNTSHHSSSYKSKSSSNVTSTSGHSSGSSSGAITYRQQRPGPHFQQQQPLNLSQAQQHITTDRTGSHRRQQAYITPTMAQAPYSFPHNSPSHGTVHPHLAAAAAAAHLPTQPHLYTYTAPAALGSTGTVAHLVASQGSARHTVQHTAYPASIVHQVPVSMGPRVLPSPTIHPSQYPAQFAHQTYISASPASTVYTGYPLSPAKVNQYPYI

BrSK1 = target: T21, BrSK1 (Homo sapiens, UniProt Q8TDC3); assay: Kinome profiler screen; type: biochemical
T21 construct: purchased Millipore KinaseProfiler

PKG1β = target: T22, PKG1β (Homo sapiens, UniProt Q13976); assay: Kinome profiler screen; type: biochemical; conditions: at 20,000 nM inhibitor; kinase activity remaining
T22 construct: purchased Millipore KinaseProfiler

CDK1/cyclinB = target: T23, CDK1/cyclinB (Homo sapiens, UniProt P06493); assay: Kinome profiler screen; type: biochemical; conditions: at 20,000 nM inhibitor; kinase activity remaining
T23 construct: purchased Millipore KinaseProfiler

PI3 Kinase (p110β/p85α) = target: T24, PI3 Kinase (p110β/p85α) (Homo sapiens, UniProt P42338); assay: Kinome profiler screen; type: biochemical; conditions: at 20,000 nM inhibitor; kinase activity remaining
T24 construct: purchased Millipore KinaseProfiler

PIP4K2α = target: T25, PIP4K2α (Homo sapiens, UniProt P48426); assay: Kinome profiler screen; type: biochemical; conditions: at 20,000 nM inhibitor; kinase activity remaining
T25 construct: purchased Millipore KinaseProfiler

IKKβ = target: T26, IKKβ (Homo sapiens, UniProt O14920); assay: Kinome profiler screen; type: biochemical; conditions: at 20,000 nM inhibitor; kinase activity remaining
T26 construct: purchased Millipore KinaseProfiler

MAPKAP-K2 = target: T27, MAPKAP-K2 (Homo sapiens, UniProt P49137); assay: Kinome profiler screen; type: biochemical; conditions: at 20,000 nM inhibitor; kinase activity remaining
T27 construct: purchased Millipore KinaseProfiler

TSSK1 = target: T28, TSSK1 (Homo sapiens, UniProt Q9BXA7); assay: Kinome profiler screen; type: biochemical; conditions: at 20,000 nM inhibitor; kinase activity remaining
T28 construct: purchased Millipore KinaseProfiler

AMPKα2 = target: T29, AMPKα2 (Homo sapiens, UniProt P54646); assay: Kinome profiler screen; type: biochemical; conditions: at 20,000 nM inhibitor; kinase activity remaining
T29 construct: purchased Millipore KinaseProfiler

MAPK1 = target: T30, MAPK1 (Homo sapiens, UniProt P27361); assay: Kinome profiler screen; type: biochemical; conditions: at 20,000 nM inhibitor; kinase activity remaining
T30 construct: purchased Millipore KinaseProfiler

EphA3 = target: T31, EphA3 (Homo sapiens, UniProt P29320); assay: Kinome profiler screen; type: biochemical; conditions: at 20,000 nM inhibitor; kinase activity remaining
T31 construct: purchased Millipore KinaseProfiler

PIP5K1γ = target: T32, PIP5K1γ (Homo sapiens, UniProt O60331); assay: Kinome profiler screen; type: biochemical; conditions: at 20,000 nM inhibitor; kinase activity remaining
T32 construct: purchased Millipore KinaseProfiler

TSSK2 = target: T33, TSSK2 (Homo sapiens, UniProt Q96PF2); assay: Kinome profiler screen; type: biochemical; conditions: at 20,000 nM inhibitor; kinase activity remaining
T33 construct: purchased Millipore KinaseProfiler

Met(M1268T) = target: T34, Met(M1268T) (Homo sapiens, UniProt P08581, M1250T); assay: Kinome profiler screen; type: biochemical; conditions: at 20,000 nM inhibitor; kinase activity remaining
T34 construct: purchased Millipore KinaseProfiler

Met(Y1248D) = target: T35, Met(Y1248D) (Homo sapiens, UniProt P08581, Y1230D); assay: Kinome profiler screen; type: biochemical; conditions: at 20,000 nM inhibitor; kinase activity remaining
T35 construct: purchased Millipore KinaseProfiler

Snk = target: T36, Snk (Homo sapiens, UniProt Q9NYY3); assay: Kinome profiler screen; type: biochemical; conditions: at 20,000 nM inhibitor; kinase activity remaining
T36 construct: purchased Millipore KinaseProfiler

Rse = target: T37, Rse (Homo sapiens, UniProt Q06418); assay: Kinome profiler screen; type: biochemical; conditions: at 20,000 nM inhibitor; kinase activity remaining
T37 construct: purchased Millipore KinaseProfiler

WNK2 = target: T38, WNK2 (Homo sapiens, UniProt Q9Y3S1); assay: Kinome profiler screen; type: biochemical; conditions: at 20,000 nM inhibitor; kinase activity remaining
T38 construct: purchased Millipore KinaseProfiler

CK1γ3 = target: T39, CK1γ3 (Homo sapiens, UniProt Q9Y6M4); assay: Kinome profiler screen; type: biochemical; conditions: at 20,000 nM inhibitor; kinase activity remaining
T39 construct: purchased Millipore KinaseProfiler

DCAMKL2 = target: T40, DCAMKL2 (Homo sapiens, UniProt Q8N568); assay: Kinome profiler screen; type: biochemical; conditions: at 20,000 nM inhibitor; kinase activity remaining
T40 construct: purchased Millipore KinaseProfiler

PAK5 = target: T41, PAK5 (Homo sapiens, UniProt Q9P286); assay: Kinome profiler screen; type: biochemical; conditions: at 20,000 nM inhibitor; kinase activity remaining
T41 construct: purchased Millipore KinaseProfiler

[3] = at 20,000 nM inhibitor, kinase activity remaining, read-out: % Activity

T1 sequence (Q9UL54 whole entry): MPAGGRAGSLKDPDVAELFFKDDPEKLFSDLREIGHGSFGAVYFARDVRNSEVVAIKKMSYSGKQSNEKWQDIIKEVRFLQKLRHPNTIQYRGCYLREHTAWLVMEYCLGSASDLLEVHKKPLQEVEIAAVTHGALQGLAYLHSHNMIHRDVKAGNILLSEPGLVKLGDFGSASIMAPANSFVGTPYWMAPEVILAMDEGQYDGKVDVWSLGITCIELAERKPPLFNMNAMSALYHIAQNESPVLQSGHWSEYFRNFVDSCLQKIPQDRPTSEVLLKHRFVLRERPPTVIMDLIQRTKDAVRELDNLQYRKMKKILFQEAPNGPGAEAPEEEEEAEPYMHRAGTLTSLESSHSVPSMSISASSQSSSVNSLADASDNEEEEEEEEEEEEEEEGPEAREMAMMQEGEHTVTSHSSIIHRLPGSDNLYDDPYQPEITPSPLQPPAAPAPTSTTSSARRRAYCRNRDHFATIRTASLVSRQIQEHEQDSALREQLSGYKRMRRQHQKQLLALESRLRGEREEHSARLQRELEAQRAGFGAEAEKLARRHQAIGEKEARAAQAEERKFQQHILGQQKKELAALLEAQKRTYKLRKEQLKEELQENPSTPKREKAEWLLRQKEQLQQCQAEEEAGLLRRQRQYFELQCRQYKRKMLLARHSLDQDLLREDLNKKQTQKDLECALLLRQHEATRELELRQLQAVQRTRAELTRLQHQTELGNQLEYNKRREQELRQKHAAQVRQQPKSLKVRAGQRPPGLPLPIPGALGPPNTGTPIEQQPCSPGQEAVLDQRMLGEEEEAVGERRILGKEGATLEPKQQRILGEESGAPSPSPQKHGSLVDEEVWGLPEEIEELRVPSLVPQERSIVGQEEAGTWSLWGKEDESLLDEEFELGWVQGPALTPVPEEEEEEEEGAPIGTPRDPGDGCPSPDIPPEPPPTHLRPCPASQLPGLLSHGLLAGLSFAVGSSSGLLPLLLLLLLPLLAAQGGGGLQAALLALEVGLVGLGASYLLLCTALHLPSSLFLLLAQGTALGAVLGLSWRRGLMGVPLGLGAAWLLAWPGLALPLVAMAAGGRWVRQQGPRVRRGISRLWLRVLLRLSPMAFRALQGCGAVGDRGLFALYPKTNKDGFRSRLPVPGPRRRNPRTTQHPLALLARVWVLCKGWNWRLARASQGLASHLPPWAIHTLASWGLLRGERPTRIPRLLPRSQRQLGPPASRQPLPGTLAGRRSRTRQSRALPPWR

CN(C)c1cc(-c2ccncc2)c(-c2cccc3ccccc23)nn1 [MW181, N,N-dimethyl-6-(naphthalen-1-yl)-5-(pyridin-4-yl)pyridazin-3-amine]
activity at 20 µM (TAO2): 94% | activity at 20 µM (cKit(D816H)): 102% | activity at 20 µM (TrkB; [3]): 109% | activity at 20 µM (GSK3β): 92% | activity at 20 µM (PKBα): 90% | activity at 20 µM (PAR-1Bα): 106% | LPS-induced IL-1β levels in vivo [1]: suppressed LPS-induced IL-1β levels in vivo | activity at 20 µM (EGFR(T790M,L858R)): 80% | activity at 20 µM (MRCKβ): 115% | activity at 20 µM (Lyn(m)): 90% | activity at 20 µM (SGK): 88% | activity at 20 µM (Src(1-530)): 98% | activity at 20 µM (CDK2/cyclinE): 118% | activity at 20 µM (Ros): 110% | activity at 20 µM (Met(D1246H)): 102% | activity at 20 µM (GRK5; [3]): 100% | activity at 20 µM (Abl(Y253F)): 108% | activity at 20 µM (CHK2(I157T)): 100% | activity at 20 µM [2]: 100% | activity at 20 µM (Arg(m)): 96% | activity at 20 µM (HIPK2): 102% | activity at 20 µM (BrSK1; [3]): 94% | activity at 20 µM (PKG1β): 97% | activity at 20 µM (CDK1/cyclinB): 113% | activity at 20 µM (PI3 Kinase (p110β/p85α)): 98% | activity at 20 µM (PIP4K2α): 97% | activity at 20 µM (IKKβ): 88% | activity at 20 µM (MAPKAP-K2): 103% | activity at 20 µM (TSSK1): 88% | activity at 20 µM (AMPKα2): 95% | activity at 20 µM (MAPK1): 90% | activity at 20 µM (EphA3): 102% | activity at 20 µM (PIP5K1γ): 100% | activity at 20 µM (TSSK2): 107% | activity at 20 µM (Met(M1268T)): 95% | activity at 20 µM (Met(Y1248D)): 94% | activity at 20 µM (Snk): 99% | activity at 20 µM (Rse): 109% | activity at 20 µM (WNK2): 92% | activity at 20 µM (CK1γ3): 105% | activity at 20 µM (DCAMKL2): 101% | activity at 20 µM (PAK5): 104%

CN(C)c1cc(-c2ccncc2)c(-c2ccc3ccccc3c2)nn1 [MW108, N, N-dimethyl-6-(naphthalen-2-yl)-5-(pyridin-4-yl)pyridazin-3-amine]
activity at 20 µM (TAO2): 81% | activity at 20 µM (cKit(D816H)): 109% | activity at 20 µM (TrkB): 78% | activity at 20 µM (GSK3β): 97% | activity at 20 µM (PKBα): 99% | activity at 20 µM (PAR-1Bα): 97% | LPS-induced IL-1β levels in vivo [1]: suppressed LPS-induced IL-1β levels in vivo | activity at 20 µM (EGFR(T790M,L858R)): 40% | activity at 20 µM (MRCKβ): 99% | activity at 20 µM (Lyn(m)): 97% | activity at 20 µM (SGK): 88% | activity at 20 µM (Src(1-530)): 101% | activity at 20 µM (CDK2/cyclinE): 108% | activity at 20 µM (Ros): 87% | activity at 20 µM (Met(D1246H)): 94% | activity at 20 µM (GRK5): 110% | activity at 20 µM (Abl(Y253F)): 98% | activity at 20 µM (CHK2(I157T)): 101% | activity at 20 µM [2]: 101% | activity at 20 µM (Arg(m)): 86% | activity at 20 µM (HIPK2): 107% | activity at 20 µM (BrSK1): 94% | activity at 20 µM (PKG1β): 96% | activity at 20 µM (CDK1/cyclinB): 90% | activity at 20 µM (PI3 Kinase (p110β/p85α)): 100% | activity at 20 µM (PIP4K2α): 96% | activity at 20 µM (IKKβ): 98% | activity at 20 µM (MAPKAP-K2): 103% | activity at 20 µM (TSSK1): 101% | activity at 20 µM (AMPKα2): 102% | activity at 20 µM (MAPK1): 82% | activity at 20 µM (EphA3): 101% | activity at 20 µM (PIP5K1γ): 104% | activity at 20 µM (TSSK2): 101% | activity at 20 µM (Met(M1268T)): 91% | activity at 20 µM (Met(Y1248D)): 93% | activity at 20 µM (Snk): 98% | activity at 20 µM (Rse): 117% | activity at 20 µM (WNK2): 101% | activity at 20 µM (CK1γ3): 100% | activity at 20 µM (DCAMKL2): 109% | activity at 20 µM (PAK5): 102%
